Source: patent US8877748B2, “Heterocyclic fused anthraquinone derivatives, manufacturing method and pharmaceutical composition using thereof” (National Defense Medical Center, priority 2012, dated 2014)

What was measured:
MALME-3M = test: NCI one-dose screening, melanoma MALME-3M; type: cell-based, human; conditions: 10 μM
BT-549 = test: NCI one-dose screening, breast cancer BT-549; type: cell-based, human; conditions: 10 μM
KM12 = test: NCI one-dose screening, colon cancer KM12; type: cell-based, human; conditions: 10 μM
HL-60, TB = test: NCI one-dose screening, leukemia HL-60, TB; type: cell-based, human; conditions: 10 μM
SK-MEL-5 = test: NCI one-dose screening, melanoma SK-MEL-5; type: cell-based, human; conditions: 10 μM
U251 = test: NCI one-dose screening, CNS cancer U251; type: cell-based, human; conditions: 10 μM
NCI-H522 = test: NCI one-dose screening, non-small cell lung cancer NCI-H522; type: cell-based, human; conditions: 10 μM
NCI-H226 = test: NCI one-dose screening, non-small cell lung cancer NCI-H226; type: cell-based, human; conditions: 10 μM
SK-MEL-2 = test: NCI one-dose screening, melanoma SK-MEL-2; type: cell-based, human; conditions: 10 μM
EKVX = test: NCI one-dose screening, non-small cell lung cancer EKVX; type: cell-based, human; conditions: 10 μM
IGROV1 = test: NCI one-dose screening, ovarian cancer IGROV1; type: cell-based, human; conditions: 10 μM
T-47D = test: NCI one-dose screening, breast cancer T-47D; type: cell-based, human; conditions: 10 μM
OVCAR-8 = test: NCI one-dose screening, ovarian cancer OVCAR-8; type: cell-based, human; conditions: 10 μM
NCI-H322M = test: NCI one-dose screening, non-small cell lung cancer NCI-H322M; type: cell-based, human; conditions: 10 μM; Non-small cell lung cancer
UACC-257 = test: NCI one-dose screening, melanoma UACC-257; type: cell-based, human; conditions: 10 μM
SNB-75 = test: NCI one-dose screening, CNS cancer SNB-75; type: cell-based, human; conditions: 10 μM
A549/ATCC = test: NCI one-dose screening, non-small cell lung cancer A549/ATCC; type: cell-based, human; conditions: 10 μM
MDA, -MB-435 = test: NCI one-dose screening, breast cancer MDA, -MB-435; type: cell-based, human; conditions: 10 μM; listed under Melanoma
SF-295 = test: NCI one-dose screening, CNS cancer SF-295; type: cell-based, human; conditions: 10 μM
HCT-15 = test: NCI one-dose screening, colon cancer HCT-15; type: cell-based, human; conditions: 10 μM
COLO 205 = test: NCI one-dose screening, colon cancer COLO 205; type: cell-based, human; conditions: 10 μM
ACHN = test: NCI one-dose screening, renal cancer ACHN; type: cell-based, human; conditions: 10 μM
SF-539 = test: NCI one-dose screening, CNS cancer SF-539; type: cell-based, human; conditions: 10 μM
MDA-MB-468 = test: NCI one-dose screening, breast cancer MDA-MB-468; type: cell-based, human; conditions: 10 μM
PC-3 = test: NCI one-dose screening, prostate cancer PC-3; type: cell-based, human; conditions: 10 μM
UACC-62 = test: NCI one-dose screening, melanoma UACC-62; type: cell-based, human; conditions: 10 μM
NCI-H460 = test: NCI one-dose screening, non-small cell lung cancer NCI-H460; type: cell-based, human; conditions: 10 μM
CCRF-CEM = test: NCI screening platform one-dose single concentration screening, leukemia CCRF-CEM; type: cell-based, human; conditions: 10 μM
HT29 = test: NCI one-dose screening, colon cancer HT29; type: cell-based, human; conditions: 10 μM
NCl/ADR-RES = test: NCI one-dose screening, breast cancer NCl/ADR-RES; type: cell-based, human; conditions: 10 μM; listed under Ovarian cancer
PRMI-8226 cell line = test: NCI one-dose screening, leukemia PRMI-8226; type: cell-based, human; conditions: 10 μM
HOP-62 = test: NCI one-dose screening, non-small cell lung cancer HOP-62; type: cell-based, human; conditions: 10 μM
SK-MEL-28 = test: NCI one-dose screening, melanoma SK-MEL-28; type: cell-based, human; conditions: 10 μM
HCC-2998 = test: NCI one-dose screening, colon cancer HCC-2998; type: cell-based, human; conditions: 10 μM
SR = test: NCI one-dose screening, leukemia SR; type: cell-based, human; conditions: 10 μM
RXF, 393 = test: NCI one-dose screening, renal cancer RXF, 393; type: cell-based, human; conditions: 10 μM
LOX IMVI = test: NCI one-dose screening, melanoma LOX IMVI; type: cell-based, human; conditions: 10 μM
M14 = test: NCI one-dose screening, melanoma M14; type: cell-based, human; conditions: 10 μM
OVCAR-5 = test: NCI one-dose screening, ovarian cancer OVCAR-5; type: cell-based, human; conditions: 10 μM
NCI-H23 = test: NCI one-dose screening, non-small cell lung cancer NCI-H23; type: cell-based, human; conditions: 10 μM
MCF7 = test: NCI one-dose screening, breast cancer MCF7; type: cell-based, human; conditions: 10 μM
OVCAR-4 = test: NCI one-dose screening, ovarian cancer OVCAR-4; type: cell-based, human; conditions: 10 μM
SN12C = test: NCI one-dose screening, renal cancer SN12C; type: cell-based, human; conditions: 10 μM
human tumor cell lines = test: NCI one-dose screening, Mean / Delta / Range of growth percent over all tested cell lines; type: cell-based; conditions: 10 μM
UO-31 = test: NCI one-dose screening, renal cancer UO-31; type: cell-based, human; conditions: 10 μM
K562cell line = test: NCI one-dose screening, leukemia K562; type: cell-based, human; conditions: 10 μM
HS 578-T = test: NCI one-dose screening, breast cancer HS 578-T; type: cell-based, human; conditions: 10 μM; Breast cancer
786-O = test: NCI one-dose screening, renal cancer 786-O; type: cell-based, human; conditions: 10 μM
[1] = system: PC-3 prostate cancer cell line; test: SRB assay cell viability, PC-3 prostate cancer cell line; type: cell-based, human; conditions: Homo sapiens, PC-3 prostate cancer cell line, Table II prints no unit, μM printed, read-out: SRB assay: 50% inhibition of cancer cell proliferation of sample concentration (IC50) of PC-3 prostate cancer cell line
MDA-MB-231/ATCC = test: NCI one-dose screening, breast cancer MDA-MB-231/ATCC; type: cell-based, human; conditions: 10 μM
SNB-19 = test: NCI one-dose screening, CNS cancer SNB-19; type: cell-based, human; conditions: 10 μM
HCT-116 = test: NCI one-dose screening, colon cancer HCT-116; type: cell-based, human; conditions: 10 μM
MOLT-4 = test: NCI one-dose screening, leukemia MOLT-4; type: cell-based, human; conditions: 10 μM
OVCAR-3 = test: NCI one-dose screening, ovarian cancer OVCAR-3; type: cell-based, human; conditions: 10 μM
DU145 = test: NCI one-dose screening, prostate cancer DU145; type: cell-based, human; conditions: 10 μM
SF-268 = test: NCI one-dose screening, CNS cancer SF-268; type: cell-based, human; conditions: 10 μM
TK-10 = test: NCI one-dose screening, renal cancer TK-10; type: cell-based, human; conditions: 10 μM
CAKI-1 = test: NCI one-dose screening, renal cancer CAKI-1; type: cell-based, human; conditions: 10 μM

For `O=C1c2ccccc2C(=O)c2c1cc(N1CCSCC1)c1nsnc21` [C15, 4-(thiomorpholino)anthra[2,1-c][1,2,5] thiadiazol-6,11-dione], the “Growth Percent MALME-3M” value (MALME-3M) was 48.56%, the “Growth Percent BT-549” value (BT-549) was 104.74% and the “Growth Percent KM12” value (KM12) was 83.12%. The “Growth Percent HL-60(TB)” value (HL-60, TB) was 51.57%, the “Growth Percent SK-MEL-5” value (SK-MEL-5) was 22.81% and the “Growth Percent U251” value (U251) was 40.24%. The “Growth Percent NCI-H522” value (NCI-H522) was 38.70%, the “Growth Percent NCI-H226” value (NCI-H226) was 78.10% and the “Growth Percent SK-MEL-2” value (SK-MEL-2) was 43.98%. For the same molecule, the “Growth Percent EKVX” value (EKVX) was 86.63%, the “Growth Percent IGROV1” value (IGROV1) was 75.28% and the “Growth Percent T-47D” value (T-47D) was 56.78%. For the same molecule, the “Growth Percent OVCAR-8” value (OVCAR-8) was 41.72%, the “Growth Percent NCI-H322M” value (NCI-H322M) was 91.69% and the “Growth Percent UACC-257” value (UACC-257) was 35.78%. The “Growth Percent SNB-75” value (SNB-75) was 105.73%, the “Growth Percent A549/ATCC” value (A549/ATCC) was 62.74% and the “Growth Percent MDA-MB-435” value (MDA, -MB-435) was 77.03%. For the same molecule, the “Growth Percent SF-295” value (SF-295) was 94.85%, the “Growth Percent HCT-15” value (HCT-15) was 61.93% and the “Growth Percent COLO 205” value (COLO 205) was 107.31%. The “Growth Percent ACHN” value (ACHN) was 83.52%, the “Growth Percent SF-539” value (SF-539) was 90.64% and the “Growth Percent MDA-MB-468” value (MDA-MB-468) was 12.59%. For the same molecule, the “Growth Percent PC-3” value (PC-3) was 56.99%, the “Growth Percent UACC-62” value (UACC-62) was 83.96% and the melting point was 219 to 220 °C. For the same molecule, the “Growth Percent NCI-H460” value (NCI-H460) was 87.46%, the “Growth Percent CCRF-CEM” value (CCRF-CEM) was 43.60% and the “Growth Percent HT29” value (HT29) was 86.91%. The “Growth Percent NCI/ADR-RES” value (NCl/ADR-RES) was 54.16%, the “Growth Percent RPMI-8226” value (PRMI-8226 cell line) was 56.96% and the “Growth Percent HOP-62” value (HOP-62) was 76.66%. For the same molecule, the “Growth Percent SK-MEL-28” value (SK-MEL-28) was 90.60%, the “Growth Percent HCC-2998” value (HCC-2998) was 107.83% and the “Growth Percent SR” value (SR) was 55.02%. The “Growth Percent RXF 393” value (RXF, 393) was 85.93%, the “Growth Percent LOX IMVI” value (LOX IMVI) was 30.16% and the “Growth Percent M14” value (M14) was 117.70%. The “Growth Percent OVCAR-5” value (OVCAR-5) was 112.62%, the “Growth Percent NCI-H23” value (NCI-H23) was 33.45% and the “Growth Percent MCF7” value (MCF7) was 49.73%. The “Growth Percent OVCAR-4” value (OVCAR-4) was 0.28%, the “Growth Percent SN12C” value (SN12C) was 76.76% and the “Growth Percent Delta” value (human tumor cell lines; delta over all cell lines) was 70.03%. For the same molecule, the “Growth Percent Mean” value (human tumor cell lines; mean over all cell lines) was 70.31%, the “Growth Percent Range” value (human tumor cell lines; range over all cell lines) was 119.98% and the “Growth Percent UO-31” value (UO-31) was 61.00%. For the same molecule, the “Growth Percent K562” value (K562cell line) was 59.58%, the “Growth Percent HS 578T” value (HS 578-T) was 84.36% and the “Growth Percent 786-0” value (786-O) was 120.26%. For the same molecule, the IC50 [1] was over 15 µM, the “Growth Percent MDA-MB-231/ATCC” value (MDA-MB-231/ATCC) was 45.69% and the “Growth Percent SNB-19” value (SNB-19) was 100.15%. For the same molecule, the “Growth Percent HCT-116” value (HCT-116) was 88.21%, the “Growth Percent MOLT-4” value (MOLT-4) was 42.86% and the “Growth Percent OVCAR-3” value (OVCAR-3) was 41.52%. For the same molecule, the “Growth Percent DU145” value (DU145) was 79.83%, the “Growth Percent SF-268” value (SF-268) was 95.90% and the “Growth Percent TK-10” value (TK-10) was 106.46%. For the same molecule, the “Growth Percent CAKI-1” value (CAKI-1) was 76.06%.
